{"source": "paper PMC5392334", "about": "“Discovery and characterization of a novel irreversible EGFR mutants selective and potent kinase inhibitor CHMFL-EGFR-26 with a distinct binding mode” (Oncotarget, 2017)", "key": {"ALK(L1196M)": {"molecular_target": "T1, ALK(L1196M) (Homo sapiens, UniProt Q9UM73, L1196M)", "T1 construct": "purchased DiscoveRx KINOMEscan", "T1 sequence (Q9UM73 19-1620 L1196M)": "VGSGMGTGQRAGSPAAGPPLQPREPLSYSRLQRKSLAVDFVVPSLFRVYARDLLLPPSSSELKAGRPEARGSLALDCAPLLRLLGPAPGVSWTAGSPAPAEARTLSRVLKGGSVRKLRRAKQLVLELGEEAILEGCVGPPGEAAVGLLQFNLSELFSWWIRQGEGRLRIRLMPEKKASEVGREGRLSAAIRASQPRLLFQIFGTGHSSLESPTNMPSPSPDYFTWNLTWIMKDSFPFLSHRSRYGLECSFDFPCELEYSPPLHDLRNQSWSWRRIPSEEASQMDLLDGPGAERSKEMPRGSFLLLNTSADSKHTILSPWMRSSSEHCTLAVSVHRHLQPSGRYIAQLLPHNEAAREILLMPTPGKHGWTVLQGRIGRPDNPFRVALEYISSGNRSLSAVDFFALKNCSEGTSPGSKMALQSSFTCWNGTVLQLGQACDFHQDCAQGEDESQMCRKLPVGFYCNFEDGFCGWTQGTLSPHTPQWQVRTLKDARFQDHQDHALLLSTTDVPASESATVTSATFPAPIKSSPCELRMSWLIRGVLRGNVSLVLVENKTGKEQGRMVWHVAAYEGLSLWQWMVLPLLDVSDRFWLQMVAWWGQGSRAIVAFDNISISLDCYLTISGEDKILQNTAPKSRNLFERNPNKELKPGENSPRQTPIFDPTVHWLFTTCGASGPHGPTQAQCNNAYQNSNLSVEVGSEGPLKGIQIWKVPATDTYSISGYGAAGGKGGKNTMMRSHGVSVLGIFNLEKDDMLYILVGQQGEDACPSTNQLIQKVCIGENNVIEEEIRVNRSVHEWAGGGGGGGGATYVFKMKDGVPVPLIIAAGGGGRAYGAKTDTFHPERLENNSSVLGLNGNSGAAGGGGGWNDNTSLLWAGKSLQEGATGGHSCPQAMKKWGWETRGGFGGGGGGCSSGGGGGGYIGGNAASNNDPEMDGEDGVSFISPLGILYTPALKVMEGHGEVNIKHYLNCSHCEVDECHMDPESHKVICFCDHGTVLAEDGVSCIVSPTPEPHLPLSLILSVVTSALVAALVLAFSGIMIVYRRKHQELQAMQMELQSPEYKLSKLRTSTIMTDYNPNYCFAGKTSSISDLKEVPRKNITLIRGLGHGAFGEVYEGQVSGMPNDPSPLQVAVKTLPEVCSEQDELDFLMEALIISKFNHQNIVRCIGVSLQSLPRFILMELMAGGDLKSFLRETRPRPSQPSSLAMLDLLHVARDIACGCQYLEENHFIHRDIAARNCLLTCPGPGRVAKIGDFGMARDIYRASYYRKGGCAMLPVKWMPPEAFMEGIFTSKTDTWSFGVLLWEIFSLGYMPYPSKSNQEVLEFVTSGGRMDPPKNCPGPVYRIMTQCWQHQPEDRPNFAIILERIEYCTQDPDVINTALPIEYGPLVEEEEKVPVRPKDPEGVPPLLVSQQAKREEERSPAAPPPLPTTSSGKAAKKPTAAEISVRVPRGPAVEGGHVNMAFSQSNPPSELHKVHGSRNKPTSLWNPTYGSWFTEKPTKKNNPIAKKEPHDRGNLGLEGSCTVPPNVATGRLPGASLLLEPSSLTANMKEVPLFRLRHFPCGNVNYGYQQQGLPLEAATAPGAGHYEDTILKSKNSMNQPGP", "experiment": "KinomeScan", "assay_type": "binding", "details": "read-out: % control"}, "CAMK1B": {"molecular_target": "T2, CAMK1B (Homo sapiens, UniProt Q6P2M8)", "T2 construct": "purchased DiscoveRx KINOMEscan", "experiment": "KinomeScan", "assay_type": "binding", "details": "read-out: % control"}, "CDC2L1": {"molecular_target": "T3, CDC2L1 (Homo sapiens, UniProt P21127)", "T3 construct": "purchased DiscoveRx KINOMEscan", "experiment": "KinomeScan", "assay_type": "binding", "details": "read-out: % control"}, "DCAMKL3": {"molecular_target": "T4, DCAMKL3 (Homo sapiens, UniProt Q9C098)", "T4 construct": "purchased DiscoveRx KINOMEscan", "experiment": "KinomeScan", "assay_type": "binding", "details": "read-out: % control"}, "EPHA1": {"molecular_target": "T5, EPHA1 (Homo sapiens, UniProt P21709)", "T5 construct": "purchased DiscoveRx KINOMEscan", "experiment": "KinomeScan", "assay_type": "binding", "details": "read-out: % control"}, "EPHB1": {"molecular_target": "T6, EPHB1 (Homo sapiens, UniProt P54762)", "T6 construct": "purchased DiscoveRx KINOMEscan", "experiment": "KinomeScan", "assay_type": "binding", "details": "read-out: % control"}, "MAP3K15": {"molecular_target": "T7, MAP3K15 (Homo sapiens, UniProt Q6ZN16)", "T7 construct": "purchased DiscoveRx KINOMEscan", "experiment": "KinomeScan", "assay_type": "binding", "details": "read-out: % control"}, "MEK4": {"molecular_target": "T8, MEK4 (Homo sapiens, UniProt P45985)", "T8 construct": "purchased DiscoveRx KINOMEscan", "experiment": "KinomeScan", "assay_type": "binding", "details": "read-out: % control"}, "MEK5": {"molecular_target": "T9, MEK5 (Homo sapiens, UniProt Q13163)", "T9 construct": "purchased DiscoveRx KINOMEscan", "experiment": "KinomeScan", "assay_type": "binding", "details": "read-out: % control"}, "MYO3A": {"molecular_target": "T10, MYO3A (Homo sapiens, UniProt Q8NEV4)", "T10 construct": "purchased DiscoveRx KINOMEscan", "experiment": "KinomeScan", "assay_type": "binding", "details": "read-out: % control"}, "NEK4": {"molecular_target": "T11, NEK4 (Homo sapiens, UniProt P51957)", "T11 construct": "purchased DiscoveRx KINOMEscan", "experiment": "KinomeScan", "assay_type": "binding", "details": "read-out: % control"}, "NEK7": {"molecular_target": "T12, NEK7 (Homo sapiens, UniProt Q8TDX7)", "T12 construct": "purchased DiscoveRx KINOMEscan", "experiment": "KinomeScan", "assay_type": "binding", "details": "read-out: % control"}, "PIK3CB": {"molecular_target": "T13, PIK3CB (Homo sapiens, UniProt P42338)", "T13 construct": "purchased DiscoveRx KINOMEscan", "experiment": "KinomeScan", "assay_type": "binding", "details": "read-out: % control"}, "RAF1": {"molecular_target": "T14, RAF1 (Homo sapiens, UniProt P04049)", "T14 construct": "purchased DiscoveRx KINOMEscan", "experiment": "KinomeScan", "assay_type": "binding", "details": "read-out: % control"}, "[1]": {"molecular_target": "T15, RSK1(Kin.Dom.2-C-terminal) (Homo sapiens, UniProt Q15418)", "T15 construct": "RSK1(Kin.Dom.2-C-terminal); purchased DiscoveRx KINOMEscan", "T15 sequence (Q15418 392-735 limits assumed)": "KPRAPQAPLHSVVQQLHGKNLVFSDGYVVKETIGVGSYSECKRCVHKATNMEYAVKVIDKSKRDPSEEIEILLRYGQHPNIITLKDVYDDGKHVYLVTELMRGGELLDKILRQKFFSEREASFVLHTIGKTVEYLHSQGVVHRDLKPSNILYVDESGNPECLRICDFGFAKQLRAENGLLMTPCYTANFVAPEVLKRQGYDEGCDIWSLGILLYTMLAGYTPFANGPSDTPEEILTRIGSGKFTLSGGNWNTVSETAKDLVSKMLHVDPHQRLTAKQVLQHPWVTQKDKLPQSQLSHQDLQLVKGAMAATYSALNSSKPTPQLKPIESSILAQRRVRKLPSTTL", "experiment": "KinomeScan", "assay_type": "binding", "details": "read-out: % control"}, "[2]": {"molecular_target": "T16, RSK3(Kin.Dom.2-C-terminal) (Homo sapiens, UniProt Q15349)", "T16 construct": "RSK3(Kin.Dom.2-C-terminal); purchased DiscoveRx KINOMEscan", "T16 sequence (Q15349 389-733 limits assumed)": "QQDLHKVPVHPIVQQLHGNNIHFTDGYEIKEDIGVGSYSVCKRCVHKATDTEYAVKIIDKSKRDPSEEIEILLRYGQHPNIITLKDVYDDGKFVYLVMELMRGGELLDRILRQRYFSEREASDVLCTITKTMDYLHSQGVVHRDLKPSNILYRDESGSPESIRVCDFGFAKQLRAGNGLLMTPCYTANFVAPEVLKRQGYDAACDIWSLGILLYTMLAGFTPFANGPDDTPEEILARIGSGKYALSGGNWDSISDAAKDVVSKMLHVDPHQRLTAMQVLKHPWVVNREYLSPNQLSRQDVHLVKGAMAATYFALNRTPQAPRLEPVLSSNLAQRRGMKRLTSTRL", "experiment": "KinomeScan", "assay_type": "binding", "details": "read-out: % control"}, "SYK": {"molecular_target": "T17, SYK (Homo sapiens, UniProt P43405)", "T17 construct": "purchased DiscoveRx KINOMEscan", "experiment": "KinomeScan", "assay_type": "binding", "details": "read-out: % control"}, "TNK2": {"molecular_target": "T18, TNK2 (Homo sapiens, UniProt Q07912)", "T18 construct": "purchased DiscoveRx KINOMEscan", "experiment": "KinomeScan", "assay_type": "binding", "details": "read-out: % control"}, "[3]": {"tested_on": "BaF3-TEL-EGFR-L858R-C797S", "experiment": "Anti-proliferation, BaF3 isogenic cell lines (CellTiter-Glo)", "assay_type": "cell-based", "details": "Mus musculus, 72 hours, triplet testing"}, "BMX": {"molecular_target": "T19, BMX (Homo sapiens, UniProt P51813)", "T19 construct": "purchased Invitrogen (SelectScreen service)", "experiment": "Invitrogen SelectScreen biochemical assay", "source_text": "(§1) In order to better understand CHMFL-EGFR-26's selectivity, we then tested it in DiscoveRx's KinomeScan™ assay. […] Given the fact that KinomeScan™ is a binding assay and sometimes cannot truly reflect the compound inhibitory activity, we then used Invitrogen SelectScreen® assay to test these potential off-targets (Supplementary Table 2). […] This was not surprising because EGFR, JAK3, HER2, HER4 and TEC family kinases (BTK, BLK and BMX) all share a similar cysteine residue at the identical position analogous to Cys 797 in EGFR in the hinge binding area.\n(§2) www.impactjournals.com/oncotarget/ Oncotarget, Supplementary Materials 2017\n(§3) KinomeScan Profiling by invitrogen SelectScreen® assay\n(§4) (1 picture or pasted object on this page, not shown here)"}, "HER2": {"molecular_target": "T20, HER2 (Homo sapiens, UniProt P04626)", "T20 construct": "purchased Invitrogen (SelectScreen service)", "T20 sequence (P04626 23-1255)": "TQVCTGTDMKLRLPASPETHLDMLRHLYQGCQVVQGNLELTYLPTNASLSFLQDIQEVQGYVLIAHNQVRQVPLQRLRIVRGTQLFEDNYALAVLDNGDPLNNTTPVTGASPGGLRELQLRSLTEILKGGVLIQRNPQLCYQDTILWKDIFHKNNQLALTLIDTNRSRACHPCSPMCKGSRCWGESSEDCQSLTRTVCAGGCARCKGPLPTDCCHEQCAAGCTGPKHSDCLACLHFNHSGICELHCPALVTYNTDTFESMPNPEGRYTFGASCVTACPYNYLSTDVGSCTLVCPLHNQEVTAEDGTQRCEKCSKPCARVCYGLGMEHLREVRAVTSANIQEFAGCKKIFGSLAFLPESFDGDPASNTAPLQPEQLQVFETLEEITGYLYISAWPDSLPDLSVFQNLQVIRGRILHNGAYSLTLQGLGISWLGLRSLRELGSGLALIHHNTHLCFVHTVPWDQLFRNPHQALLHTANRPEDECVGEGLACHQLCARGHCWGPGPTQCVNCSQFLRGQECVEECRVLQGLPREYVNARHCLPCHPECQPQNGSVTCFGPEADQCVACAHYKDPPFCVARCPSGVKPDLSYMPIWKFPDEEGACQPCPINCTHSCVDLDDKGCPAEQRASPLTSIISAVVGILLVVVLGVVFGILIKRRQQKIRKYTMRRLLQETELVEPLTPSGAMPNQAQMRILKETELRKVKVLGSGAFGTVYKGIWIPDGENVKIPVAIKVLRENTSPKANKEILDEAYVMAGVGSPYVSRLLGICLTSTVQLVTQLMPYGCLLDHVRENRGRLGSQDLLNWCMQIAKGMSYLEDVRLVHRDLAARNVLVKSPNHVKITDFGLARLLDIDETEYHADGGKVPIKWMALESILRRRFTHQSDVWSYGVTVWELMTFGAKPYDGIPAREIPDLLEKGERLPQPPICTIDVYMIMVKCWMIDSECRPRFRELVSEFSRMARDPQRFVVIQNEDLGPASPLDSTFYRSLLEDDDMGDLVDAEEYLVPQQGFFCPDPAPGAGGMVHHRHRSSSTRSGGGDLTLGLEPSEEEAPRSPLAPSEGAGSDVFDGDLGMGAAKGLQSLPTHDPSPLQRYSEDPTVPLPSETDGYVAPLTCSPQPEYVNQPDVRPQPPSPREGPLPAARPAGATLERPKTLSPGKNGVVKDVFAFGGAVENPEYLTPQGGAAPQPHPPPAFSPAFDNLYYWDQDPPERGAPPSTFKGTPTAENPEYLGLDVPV", "experiment": "Invitrogen SelectScreen biochemical assay", "source_text": "as §1, §2, §3, §4"}, "HER4": {"molecular_target": "T21, HER4 (Homo sapiens, UniProt Q15303)", "T21 construct": "purchased Invitrogen (SelectScreen service)", "T21 sequence (Q15303 26-1308)": "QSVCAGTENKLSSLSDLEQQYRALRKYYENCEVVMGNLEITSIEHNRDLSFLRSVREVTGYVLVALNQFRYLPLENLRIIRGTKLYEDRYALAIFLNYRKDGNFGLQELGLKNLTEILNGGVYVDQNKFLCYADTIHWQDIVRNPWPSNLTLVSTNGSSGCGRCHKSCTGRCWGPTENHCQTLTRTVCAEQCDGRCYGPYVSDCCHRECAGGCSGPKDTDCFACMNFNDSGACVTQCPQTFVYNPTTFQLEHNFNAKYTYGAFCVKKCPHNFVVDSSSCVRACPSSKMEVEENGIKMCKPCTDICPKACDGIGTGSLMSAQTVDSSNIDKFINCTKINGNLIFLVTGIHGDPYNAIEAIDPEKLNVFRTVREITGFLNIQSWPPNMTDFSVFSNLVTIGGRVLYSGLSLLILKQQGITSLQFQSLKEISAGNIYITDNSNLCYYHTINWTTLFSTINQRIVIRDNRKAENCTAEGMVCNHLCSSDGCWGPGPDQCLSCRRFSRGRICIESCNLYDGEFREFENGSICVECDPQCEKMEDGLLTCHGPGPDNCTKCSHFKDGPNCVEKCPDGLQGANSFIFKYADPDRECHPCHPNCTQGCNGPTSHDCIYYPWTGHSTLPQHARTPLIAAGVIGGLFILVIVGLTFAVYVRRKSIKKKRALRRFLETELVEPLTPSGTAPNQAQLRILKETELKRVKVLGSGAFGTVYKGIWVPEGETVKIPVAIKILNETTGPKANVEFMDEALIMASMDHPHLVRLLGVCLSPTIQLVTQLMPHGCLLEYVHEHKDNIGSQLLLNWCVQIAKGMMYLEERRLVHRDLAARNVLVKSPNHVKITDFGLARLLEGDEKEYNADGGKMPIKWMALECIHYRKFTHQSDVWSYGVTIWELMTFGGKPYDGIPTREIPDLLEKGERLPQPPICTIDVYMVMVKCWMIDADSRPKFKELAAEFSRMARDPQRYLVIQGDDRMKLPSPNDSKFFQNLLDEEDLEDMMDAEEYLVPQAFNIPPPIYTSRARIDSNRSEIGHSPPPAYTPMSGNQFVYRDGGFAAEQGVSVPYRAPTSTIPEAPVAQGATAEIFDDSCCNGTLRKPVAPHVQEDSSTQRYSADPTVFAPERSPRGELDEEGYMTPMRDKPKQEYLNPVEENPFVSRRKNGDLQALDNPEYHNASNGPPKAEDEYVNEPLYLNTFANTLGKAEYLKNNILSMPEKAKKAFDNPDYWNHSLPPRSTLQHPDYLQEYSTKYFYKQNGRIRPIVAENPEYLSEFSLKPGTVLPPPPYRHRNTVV", "experiment": "Invitrogen SelectScreen biochemical assay", "source_text": "as §1, §2, §3, §4"}, "JAK3": {"molecular_target": "T22, JAK3 (Homo sapiens, UniProt P52333)", "T22 construct": "purchased Invitrogen (SelectScreen service)", "experiment": "Invitrogen SelectScreen biochemical assay", "source_text": "as §1, §2, §3, §4"}}, "data": [{"smiles": "C=CC(=O)N1CCC[C@@H](n2nc(-c3ccc(OCc4cccc(C)n4)c(Cl)c3)c3c(N)ncnc32)C1", "note": "[CHMFL-EGFR-26]", "values": [{"measurement": "remaining binding at 1 µM", "setting": "ALK(L1196M)", "value": 100, "unit": "%"}, {"measurement": "remaining binding at 1 µM", "setting": "CAMK1B", "value": 82, "unit": "%"}, {"measurement": "remaining binding at 1 µM", "setting": "CDC2L1", "value": 86, "unit": "%"}, {"measurement": "remaining binding at 1 µM", "setting": "DCAMKL3", "value": 100, "unit": "%"}, {"measurement": "remaining binding at 1 µM", "setting": "EPHA1", "value": 42, "unit": "%"}, {"measurement": "remaining binding at 1 µM", "setting": "EPHB1", "value": 96, "unit": "%"}, {"measurement": "remaining binding at 1 µM", "setting": "MAP3K15", "value": 100, "unit": "%"}, {"measurement": "remaining binding at 1 µM", "setting": "MEK4", "value": 80, "unit": "%"}, {"measurement": "remaining binding at 1 µM", "setting": "MEK5", "value": 0.1, "unit": "%"}, {"measurement": "remaining binding at 1 µM", "setting": "MYO3A", "value": 97, "unit": "%"}, {"measurement": "remaining binding at 1 µM", "setting": "NEK4", "value": 100, "unit": "%"}, {"measurement": "remaining binding at 1 µM", "setting": "NEK7", "value": 90, "unit": "%"}, {"measurement": "remaining binding at 1 µM", "setting": "PIK3CB", "value": 94, "unit": "%"}, {"measurement": "remaining binding at 1 µM", "setting": "RAF1", "value": 97, "unit": "%"}, {"measurement": "remaining binding at 1 µM", "setting": "[1]", "value": 83, "unit": "%"}, {"measurement": "remaining binding at 1 µM", "setting": "[2]", "value": 85, "unit": "%"}, {"measurement": "remaining binding at 1 µM", "setting": "SYK", "value": 94, "unit": "%"}, {"measurement": "remaining binding at 1 µM", "setting": "TNK2", "value": 93, "unit": "%"}, {"measurement": "GI50", "setting": "[3]", "value": 3200, "unit": "nM"}, {"measurement": "IC50", "setting": "BMX", "value": 38.9, "unit": "nM"}, {"measurement": "IC50", "setting": "HER2", "value": 15.9, "unit": "nM"}, {"measurement": "IC50", "setting": "HER4", "value": 5.39, "unit": "nM"}, {"measurement": "IC50", "setting": "JAK3", "value": 30.6, "unit": "nM"}]}]}
